Test results as given in US5114961A, “2,5-diaryl tetrahydrofurans and analogs thereof as PAF antagonists” (Merck & Co., Inc., priority 1990, dated 1992).
“And” between values parts separate entries of the source, which are not always exact repeats. Equal entries are not always repeated.

These molecules were tested against T1, PAF specific receptor binding site (human platelet membranes) (Homo sapiens, UniProt P25105) (assay: Inhibition of [3H]N-methylcarbamoyl-PAF binding to human platelet membranes). Details: drug concentration of 3 nM, trans configuration.
T1 construct: platelet membranes at a drug concentration of 3 nM; from tissue; host or cells: human platelet plasma membranes
Method: The ability of a compound of formula (I) to inhibit the PAF binding to its specific receptor binding site on rabbit or human platelet or PMN plasma membranes was measured by a recently developed assay.
The inhibition of ^3 [H]-PAF or ^3 [H]-N-methyl carbamoyl-TAF binding to the human or rabbit platelet or PMN plasma membrane by a PAF antagonist of formula (I) was determined by a method employing isotopic labeling and filtration techniques. Generally, a series of Tris-buffered solutions of the selected antagonist at predetermined concentrations were prepared. Each of these solutions contains 1 pmole of ^3 H-PAF, a known amount of the test antagonist, and a sufficient amount of the pH 7.5 Tris-buffer solution (10mM Tris, 0.25% bovine serum albumin, and 150 mM NaCl per ml water) to make the final volume of 1 ml. After adding into a set of test tubes each with 100 μg of the platelet plasma membrane suspension (S. B. Hwang, et. al., Biochemistry, Vol. 22 pp. 4756-4763, 1983) and one of the Tris-buffer solutions described above, the resulting mixture in each test tube was incubated at 0° C. for about one hours or until the reaction was complete. Two control samples, one of which (C1) contains all the ingredients described above except the antagonist and the other (C2) contains C1 plus a 100-fold excess of unlabeled PAF, were also prepared and incubated simultaneously with the test samples. After the incubation was completed, the contents of each test tube were filtered under vacuo through a Whatman GF/C fiberglass filter and the residue washed rapidly several times with a total of 20 ml cold (0°-5° C.) Tris-buffer solution. Each washed residue was then suspended in 10 ml scintillation solution (Aquasol 2, New England Nuclear, Conn.) and the radioactivity was counted in a Packard Tri-Carb 460CD Liquid Scintillation System. Defining the counts from a test sample as "Total binding with antagonist"; the counts from the control sample C1, as "Total binding C1 "; and the counts from the control sample C2 as "non-specific binding C2 ", the percent inhibition of each test antagonist can be determined by the following equations: [formula]

T1 sequence (P25105 whole entry): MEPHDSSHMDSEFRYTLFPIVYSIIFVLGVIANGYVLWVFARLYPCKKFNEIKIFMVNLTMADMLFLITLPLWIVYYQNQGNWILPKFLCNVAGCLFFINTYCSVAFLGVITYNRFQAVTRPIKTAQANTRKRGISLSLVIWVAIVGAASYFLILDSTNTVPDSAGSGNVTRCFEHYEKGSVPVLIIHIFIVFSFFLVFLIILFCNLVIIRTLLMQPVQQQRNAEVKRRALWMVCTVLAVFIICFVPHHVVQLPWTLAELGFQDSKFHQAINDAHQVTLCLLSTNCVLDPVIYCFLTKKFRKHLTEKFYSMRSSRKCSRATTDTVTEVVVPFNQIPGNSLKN

Going from `CCCOc1c(OCCN2CCNCC2)cc([C@@H]2CC[C@@H](c3cc(OC)c(OC)c(OC)c3)O2)cc1S(=O)(=O)CC(C)=O` (relative stereo) to `CCCOc1c(OCCN2CCCC2)cc([C@@H]2CC[C@@H](c3cc(OC)c(OC)c(OC)c3)O2)cc1S(=O)(=O)CC(C)=O` (relative stereo) [trans-2-[3-(2-Oxopropylsulfonyl)-4-n-propoxy-5-{2-(1-pyrrolidino)-ethoxy}phenyl]-5-(3,4,5-trimethoxyphenyl)tetrahydrofuran], the inhibition at 0.003 µM falls from 34% to 29%.

Compared with `CCCOc1c(OCCSc2ncc[nH]2)cc([C@H]2CC[C@H](c3cc(OC)c(OC)c(OC)c3)O2)cc1S(=O)(=O)CC(C)O` (relative stereo) [trans-2-[3-(2-Hydroxy-n-propylsulfonyl)-4-n-propoxy-5-{2-(2-imidazolylthio)ethoxy}phenyl]-5-(3,4,5-trimethoxyphenyl)tetrahydrofuran], `CCCOc1c(OCCCSc2ncc[nH]2)cc([C@H]2CC[C@H](c3cc(OC)c(OC)c(OC)c3)O2)cc1S(=O)(=O)CC(C)O` (relative stereo) [trans-2-[3-(2-Hydroxy-n-propylsulfonyl)-4-n-propoxy-5-{3-(2-imidazolylthio)n-propoxy}phenyl]-5-(3,4,5-trimethoxyphenyl)tetrahydrofuran] is higher in inhibition at 0.003 µM: 34% for the first, 46% for the second.

Going from `CCCOc1c(OCCCn2ccnc2)cc([C@H]2CC[C@H](c3cc(OC)c(OC)c(OC)c3)O2)cc1S(=O)(=O)CC(C)O` (relative stereo) [trans-2-[3-(2-Hydroxy-n-propylsulfonyl)-4-n-propoxy-5-{3-(1-imidazolyl)propoxy}phenyl]-5-(3,4,5-trimethoxyphenyl)tetrahydrofuran] to `CCCOc1c(OCCCCn2ccnc2)cc([C@H]2CC[C@H](c3cc(OC)c(OC)c(OC)c3)O2)cc1S(=O)(=O)CC(C)O` (relative stereo) [trans-2-[3-(2-Hydroxy-n-propylsulfonyl)-4-n-propoxy-5-{4-(1-imidazolyl)butoxy}phenyl]-5-(3,4,5-trimethoxyphenyl)tetrahydrofuran], the inhibition at 0.003 µM rises from 41% to 43%.

Going from `CCCOc1c(OCCCSc2nc[nH]n2)cc([C@@H]2CC[C@@H](c3cc(OC)c(OC)c(OC)c3)O2)cc1S(=O)(=O)CC(C)O` (relative stereo) [trans-2-[3-(2-Hydroxy-n-propylsulfonyl)-4-n-propoxy-5-{3-(1H-1,2,4-triazolyl-3-thio)propoxy}phenyl]-5-(3,4,5-trimethoxyphenyl)tetrahydrofuran] to `CCCOc1c(OCCCSc2nc[nH]n2)cc([C@@H]2CC[C@@H](c3cc(OC)c(OC)c(OC)c3)O2)cc1S(=O)(=O)CC(C)=O` (relative stereo) [trans-2-[3-(2-Oxopropylsulfonyl)-4-n-propoxy-5-{3-(1H-1,2,4-triazolyl-3-thio)n-propoxy}phenyl]-5-(3,4,5-trimethoxyphenyl)tetrahydrofuran], the inhibition at 0.003 µM rises from 61% to 69%.

First: CCCOc1c(OCCn2ccnc2)cc([C@@H]2CC[C@@H](c3cc(OC)c(OC)c(OC)c3)O2)cc1S(=O)(=O)CC(C)O (relative stereo) [trans-2-[3-(2-Hydroxy-n-propylsulfonyl-4-n-propoxy-5-{2-(1-imidazolyl)ethoxy}phenyl]-5-(3,4,5-trimethoxyphenyl)tetrahydrofuran]
Second: CCCOc1c(OCCN2CCOCC2)cc([C@@H]2CC[C@@H](c3cc(OC)c(OC)c(OC)c3)O2)cc1S(=O)(=O)CC(C)O (relative stereo) [trans-2-[3-(2-Hydroxypropylsulfonyl)-4-n-propoxy-5-{2-(1-morpholino)-n-ethoxy}phenyl]-5-(3,4,5-trimethoxyphenyl)tetrahydrofuran]
The inhibition at 0.003 µM of the first is higher: 48% for the first, 20% for the second.

Going from `CCCOc1cc([C@@H]2CC[C@@H](c3cc(OC)c(OC)c(OC)c3)O2)cc(S(=O)(=O)CCN2CCOCC2)c1OCCC` (relative stereo) [trans-2-[3-(2-N-Morpholinoethylsulfonyl)-4,5-di-n-propoxyphenyl]-5-(3,4,5-trimethoxyphenyl)tetrahydrofuran] to `CCCOc1cc([C@@H]2CC[C@@H](c3cc(OC)c(OC)c(OC)c3)O2)cc(S(=O)(=O)CCN2CCCC2)c1OCCC` (relative stereo) [trans-2-[3-(2-N-Pyrrolidinylethylsulfonyl)-4,5-dipropoxyphenyl]-5-(3,4,5-trimethoxyphenyl) tetrahydrofuran], the inhibition at 0.003 µM rises from 17% to 18%.

Compared with `CCCOc1c(OCCN2CCOCC2)cc([C@@H]2CC[C@@H](c3cc(OC)c(OC)c(OC)c3)O2)cc1S(=O)(=O)CC(C)=O` (relative stereo) [trans-2-[3-(2-Oxopropylsulfonyl)-4-n-propoxy-5-{2-(1-morpholino)-ethoxy}phenyl]-5-(3,4,5-trimethoxyphenyl)tetrahydrofuran], `CCCOc1c(OCCCN2CCOCC2)cc([C@@H]2CC[C@@H](c3cc(OC)c(OC)c(OC)c3)O2)cc1S(=O)(=O)CC(C)=O` (relative stereo) [trans-2-[3-(2-oxopropylsulfonyl)-4-n-propoxy-5-{3-(1-morpholino)-n-propoxy}phenyl]-5-(3,4,5-trimethoxyphenyl)tetrahydrofuran] is higher in inhibition at 0.003 µM: 25% for the first, 31% for the second.

Compared with `CCCOc1c(OCCN2CCCCC2)cc([C@H]2CC[C@H](c3cc(OC)c(OC)c(OC)c3)O2)cc1S(=O)(=O)CC(C)=O` (relative stereo) [trans-2-[3-(2-Oxopropylsulfonyl)-4-n-propoxy-5-{2-(1-piperidinyl)-ethoxy}phenyl]-5-(3,4,5-trimethoxyphenyl)tetrahydrofuran], `CCCOc1c(OCCCN2CCCC2)cc([C@@H]2CC[C@@H](c3cc(OC)c(OC)c(OC)c3)O2)cc1S(=O)(=O)CC(C)=O` (relative stereo) [trans-2-[3-(2-Oxopropylsulfonyl)-4-n-propoxy-5-{3-(1-pyrrolidino)-n-propoxy}phenyl]-5-(3,4,5-trimethoxyphenyl)tetrahydrofuran] is higher in inhibition at 0.003 µM: 34% for the first, 48% for the second.

Compared with `CCCOc1c(OCCSc2ncc[nH]2)cc([C@H]2CC[C@H](c3cc(OC)c(OC)c(OC)c3)O2)cc1S(=O)(=O)CC(C)=O` (relative stereo) [trans-2-[3-(2-Oxopropylsulfonyl)-4-n-propoxy-5-{2-(2-imidazolylthio)ethoxy}phenyl]-5-(3,4,5-trimethoxyphenyl)tetrahydrofuran], `CCCOc1c(OCCCSc2ncc[nH]2)cc([C@H]2CC[C@H](c3cc(OC)c(OC)c(OC)c3)O2)cc1S(=O)(=O)CC(C)=O` (relative stereo) [trans-2-[3-(2-Oxopropylsulfonyl)-4-n-propoxy-5-{3-(2-imidazolylthio)propoxy}phenyl]-5-(3,4,5-trimethoxyphenyl)tetrahydrofuran] is lower in inhibition at 0.003 µM: 55% for the first, 45% for the second.

First: CCCOc1c(OCCCCN2CCOCC2)cc([C@@H]2CC[C@@H](c3cc(OC)c(OC)c(OC)c3)O2)cc1S(=O)(=O)CC(C)=O (relative stereo) [trans-2-[3-(2-Oxopropylsulfonyl)-4-n-propoxy-5-{4-(1-morpholino)-n-butoxy}phenyl]-5-(3,4,5-trimethoxyphenyl)tetrahydrofuran]
Second: CCCOc1c(OCCCN2CCOCC2)cc([C@@H]2CC[C@@H](c3cc(OC)c(OC)c(OC)c3)O2)cc1S(=O)(=O)CC(C)O (relative stereo) [trans-2-[3-(2-hydroxypropyl-sulfonyl)-4-propoxy-5-{3-(1-morpholino)-n-propoxy}phenyl]-5-(3,4,5-trimethoxyphenyl)tetrahydrofuran]
The inhibition at 0.003 µM of the first is higher: 30% for the first, 18% for the second.

Compared with `CCCOc1c(OCCCCSc2ncc[nH]2)cc([C@H]2CC[C@H](c3cc(OC)c(OC)c(OC)c3)O2)cc1S(=O)(=O)CC(C)=O` (relative stereo) [trans-2-[3-(2-Oxopropylsulfonyl)-4-n-propoxy-5-{4-(2-imidazolylthio)butoxy}phenyl]-5-(3,4,5-trimethoxyphenyl)tetrahydrofuran], `CCCOc1c(OCCCN2CCOCC2)cc([C@@H]2CC[C@@H](c3cc(OC)c(OC)c(OC)c3)O2)cc1S(=O)(=O)CCC(C)O` (relative stereo) [trans-2-[3-(3-Hydroxybutyl)sulfonyl-4-n-propoxy-5-(3-{1-morpholino}-n-propoxy)phenyl]-5-(3,4,5-trimethoxyphenyl)tetrahydrofuran] is lower in inhibition at 0.003 µM: 60% for the first, 25% for the second.

For `CCCS(=O)(=O)c1cc([C@@H]2CC[C@@H](c3cc(OC)c(OC)c(OC)c3)O2)cc(OCCN2CCOCC2)c1OCCCCCCO` (relative stereo) [trans-2-[3-n-Propylsulfonyl-4-(6-hydroxy-n-hexyloxy)-5-{2-(1-morpholino)-ethoxy}phenyl]5-(3,4,5-trimethoxyphenyl)tetrahydrofuran], the inhibition at 0.003 µM was 55%.

Same assay, conditions: drug concentration of 3 nM, trans configuration, 0.003 µM

For `CCCS(=O)(=O)c1cc([C@H]2CC[C@H](c3cc(OC)c(OC)c(OC)c3)O2)cc(OC)c1OCCSc1ccc(O)cc1` (relative stereo) [trans-2-[3-Propylsulfonyl-4-{2-(4-hydroxyphenylthio)-ethoxy}-5-methoxyphenyl]-5-(3,4,5-trimethoxyphenyl) tetrahydrofuran], the “% Inhibition of the binding of [3H]N-methylcarbamoyl-PAF to human platelet membranes” value was 60% and 100%.
